Measured values: patent publication US5750389A, “Purified saccharose-synthase, process for its production and its use” (Forschungszentrum Julich GmbH, priority 1992, dated 1998)
pKi: −log10 of the molar value.

Assays:
[1] = tested on: purified sucrose-synthase from rice; assay: Substrate spectrum for the synthesis of disaccharides: variation of the acceptor, reacted with UDP-glucose; assay type: biochemical; settings: for Relative Activity %: acceptor substrates reacted with UDP-glucose, D-fructose = 100
Description: 12. Substrate Spectrum of the Saccharose-synthase from rice for the synthesis of Disaccharides.
B: Variation of the Acceptor.
For the synthesis reaction, the acceptor was varied. Apart from the natural acceptor, other diastereomers of D-fructose, like D-psicose, D-tagatose, D-sorbose were introduced. Further, several keytoses were systematically tested. Apart from Aldoses, nonsugar acceptors were also tested.

[2] = tested on: purified sucrose-synthase from rice; assay: Substrate spectrum of the sucrose-synthase for the splitting reaction (saccharide + UDP); assay type: biochemical; settings: for Relative Activity %: substrate splitting with UDP, 2 mM UDP, saccharide 75 to 500 mM, 3 h at 30° C., pH 7.2, Saccharose = 100; for replacement of saccharose in the splitting reaction (in words): Table 3
Description: 11. Substrate Spectrum of the Sucrose-Synthase for the splitting reaction (I)
For the splitting reaction of the sucrose-synthase, sucrose was replaced by other disaccharide or trisaccharide:
α-Glc 1-2 β-Fruc+UDP (TDP) UDP-Glc (TDP-Glc)
The concentration of the saccharide amounted to 75 to 500 mM in the reaction composition. 2 mM UDP or TDP and as a rule 10 to 80 mU enzyme were introduced. After 3 h at 30° C. and pH 7.2 (200 mM Hepes-NaOH), the reaction was stopped at 95° C. 5 min. The formation of nucleotide sugars was followed with HPLC and compared with a control (without enzyme).

[3] = tested on: purified Sucrose-synthase; assay: Substrate spectrum of the nucleosidediphosphate; assay type: biochemical, rice; settings: pH 7.2, 30° C., FIG. 2
Description: 1. Substrate spectrum of the nucleosidediphosphate.
UDP, TDP, CDP, ADP and GDP were investigated. The reaction compositions contained:
100 μl Nucleosidediphosphate (15-90 mM)
100 μl purified Sucrose-synthase (21.1 mU/ml)
The reaction composition was incubated at 30° C. and stopped at different times (5 min. at 95° C.). After filtration of the sample through a 0.22 μm filter, the resulting nucleotide sugar was analyzed by means of ionpair HPLC.

saccharose synthase = assay: Dependence on divalent metal ions; assay type: biochemical, rice; settings: 1 mM of metal ions
Source text: 9. Dependence on Divalent Metal Ions

[4] = tested on: rice enzyme (sucrose-synthase); assay: Kinetics (Vmax, Km) of the splitting reaction; assay type: biochemical; settings: sucrose 500 mM; for Km: UDP or TDP varied 0 to 10 mM, 1 h at 30° C., pH 6.5
Description: […] All reaction mixtures were incubated for 1 h at 30° C. and pH 6.5 (Hepes-NaOH 200 mM). The samples were treated as described above and analyzed with HPLC. […] The substrate excess inhibition can be countered by higher enzyme quantities.

[5] = tested on: purified saccharose synthase from rice; assay: Substrate spectrum for the synthesis of disaccharides: variation of the nucleotide sugar, fructose as acceptor; assay type: biochemical; settings: for reaction of UDP-sugar with the rice enzyme (in words): Table 4; for Relative Activity %: UDP-sugars with fructose as acceptor, 2 hours at 30° C., pH 7.5, UDP-glucose = 100
Description: A: Variation of the Nucleotide Sugar.
For the synthesis reaction the nucleotide sugars were varied:
The composition contained:
The composition was incubated for 2 hours at 30° C. and stopped for 5 minutes at 95° C. With HPLC, with comparison with a control (without enzyme) the development of UDP was followed.

With OCCN1CCCCC1 the “Relative Activity %” value [1] was 9.4%.

For OC[C@H]1O[C@@H](O[C@@H]2[C@@H](CO)OC(O)(CO)[C@H]2O)[C@H](O)[C@@H](O)[C@H]1O (mixture of isomers) [Lactulose], the “acceptor of sucrose-synthase (in words)” value [1] was “can also serve as acceptors” and the “Relative Activity %” value [1] was 12.3%.

In the case of O[C@@H]1[C@@H](O)[C@@H]2OC[C@@H](O2)[C@H]1O [1,6-Anhydroglucose], the “acceptor of sucrose-synthase (in words)” value [1] was “acceptors” and the “Relative Activity %” value [1] was 9.1%.

CCN1CCC(O)C1 (centres unmarked) [1-ethyl-3-hydroxy-pyrrolidine] was tested, and the “Relative Activity %” value [1] was 10.4%.

With OC[C@H]1O[C@@](CO)(O[C@@H]2C[C@@H](O)[C@H](O)[C@@H](CO)O2)[C@@H](O)[C@@H]1O [2-deoxy-saccharose] the “Relative Activity %” value [2] was 55%.

In the case of CN1CCC(O)C1 (centres unmarked) [3-hydroxy-N-methyl-pyrrolidine], the “Relative Activity %” value [1] was 1.9%.

With OC1CCNC1 (centres unmarked) [3-hydroxypyrrolidine] the “Relative Activity %” value [1] was 6.3%.

OCC(O)CN1CCCC1 (centres unmarked) [3-pyrrolidino-1,2-propandiol] was tested, and the “Relative Activity %” value [1] was 9.6%.

CC(C)[C@@H](O)[C@H](O)C(=O)CO [5,6-dideoxy-5-methyl-D-fructose] was tested, and the “Relative Activity %” value [1] was 19.0%.

With CC[C@@H](O)[C@H](O)C(=O)CO [5,6-dideoxy-D-fructose] the “Relative Activity %” value [1] was 7.6%.

In the case of CC(=O)[C@@H](O)[C@H](O)C(=O)CO [5-keto-6-deoxy-D-fructose], the “Relative Activity %” value [1] was 25.1%.

In the case of C[C@H](O)[C@@H](O)[C@H](O)C(=O)CO [6-desoxy-L-sorbase], the “Relative Activity %” value [1] was 8.8%.

Nc1ncnc2c1ncn2[C@@H]1O[C@H](COP(=O)(O)OP(=O)(O)O)[C@@H](O)[C@H]1O [ADP] was tested, and the “acceptance of the nucleosidediphosphate (rate of NDP-glucose formation)” value (“acceptance of the nucleosidediphosphate” below) [3] was “accepted in the sequence UDP, TDP, ADP, CDP and GDP”.

For CC1(C)S[C@@H]2[C@H](NC(=O)[C@H](N)c3ccccc3)C(=O)N2[C@H]1C(=O)O [Ampicillin, reference compound], the “Relative Activity %” value [2] was 2.4%.

For Nc1ccn([C@@H]2O[C@H](COP(=O)(O)OP(=O)(O)O)[C@@H](O)[C@H]2O)c(=O)n1 [CDP], the “acceptance of the nucleosidediphosphate” value [3] was “accepted in the sequence UDP, TDP, ADP, CDP and GDP”.

[Ca+2] [Ca^2+] was tested, and the “influence of metal ions on the enzyme activity, TDP as the substrate” value (saccharose synthase) was “stimulation of the enzyme activity”.

In the case of [Cu+2] [Cu^2+], the “influence of metal ions on the enzyme activity” value (saccharose synthase) was “completely inactivated”.

O=C(CO)[C@@H](O)[C@H](O)[C@H](O)CO [D-fructose] was tested, and the “Relative Activity %” value [1] was 100%.

O=C[C@@H](O)[C@@H](O)[C@H](O)CO [D-lyxose] was tested, and the “acceptor of sucrose-synthase (in words)” value [1] was “acceptors” and the “Relative Activity %” value [1] was 14.7%.

In the case of O=C[C@@H](O)[C@@H](O)[C@H](O)[C@H](O)CO [D-mannose], the “acceptor of sucrose-synthase (in words)” value [1] was “acceptors” and the “Relative Activity %” value [1] was 3.9%.

For O=C(CO)[C@H](O)[C@H](O)[C@H](O)CO [D-psicose], the “Relative Activity %” value [1] was 14.1%.

With O=C(CO)[C@@H](O)[C@@H](O)[C@H](O)CO [D-tagatose] the “Relative Activity %” value [1] was 28.3%.

With O=C(CO)[C@@H](O)[C@H](O)CO [D-xylulose] the “acceptor of sucrose-synthase (in words)” value [1] was “acceptors” and the “Relative Activity %” value [1] was 40.7%.

[Fe+2] [Fe^2+] was tested, and the “influence of metal ions on the enzyme activity” value (saccharose synthase) was “completely inactivated”.

In the case of Nc1nc2c(ncn2[C@@H]2O[C@H](COP(=O)(O)OP(=O)(O)O)[C@@H](O)[C@H]2O)c(=O)[nH]1 [GDP], the “acceptance of the nucleosidediphosphate” value [3] was “accepted in the sequence UDP, TDP, ADP, CDP and GDP”.

OC[C@H]1O[C@H](OC[C@H]2OC(O)(CO)[C@@H](O)[C@@H]2O)[C@H](O)[C@@H](O)[C@@H]1O (some centres unmarked) [Isomaltulose] was tested, and the “replacement of saccharose in the splitting reaction (in words)” value (“replacement of saccharose” for short) [2] was “can replace the saccharose”, the “Relative Activity %” value [2] was 1.0% and the “Relative Activity %” value [1] was 3.1%.

For O=C[C@H](O)[C@@H](O)[C@@H](O)CO [L-arabinose], the “acceptor of sucrose-synthase (in words)” value [1] was “acceptors” and the “Relative Activity %” value [1] was 3.2%.

O=C(CO)[C@@H](O)[C@H](O)[C@@H](O)CO [L-sorbose] was tested, and the “acceptor of sucrose-synthase (in words)” value [1] was “acceptors” and the “Relative Activity %” value [1] was 6.0%.

OC[C@H]1O[C@@](CO)(O[C@H]2O[C@H](CO)[C@@H](O)[C@H](O)[C@H]2O)[C@@H](O[C@H]2O[C@H](CO)[C@@H](O)[C@H](O)[C@H]2O)[C@@H]1O [Melizitose] was tested, and the “replacement of saccharose” value [2] was “can replace the saccharose”, the “Relative Activity %” value [2] was 0.4% and the “Relative Activity %” value [1] was 0.6%.

For [Mg+2] [Mg^2+], the “influence of metal ions on the enzyme activity” value (saccharose synthase) was “influenced only slightly”.

[Mn+2] [Mn^2+] was tested, and the “influence of metal ions on the enzyme activity” value (saccharose synthase) was “influenced only slightly” and the “influence of metal ions on the enzyme activity, TDP as the substrate” value (saccharose synthase) was “stimulation of the enzyme activity”.

In the case of CCCCCCCCO[C@@H]1O[C@H](CO)[C@@H](O)[C@H](O)[C@H]1O [Octyl-β-D-glucopyranoside], the “acceptor of sucrose-synthase (in words)” value [1] was “acceptors” and the “Relative Activity %” value [1] was 0.5%.

OC[C@H]1O[C@H](OC[C@H]2O[C@H](O[C@]3(CO)O[C@H](CO)[C@@H](O)[C@@H]3O)[C@H](O)[C@@H](O)[C@@H]2O)[C@H](O)[C@@H](O)[C@H]1O [Raffinose] was tested, and the “replacement of saccharose” value [2] was “can replace the saccharose”, the “Relative Activity %” value [2] was 3.8% and the “acceptor of sucrose-synthase (in words)” value [1] was “can also serve as acceptors”. The “Relative Activity %” value [1] was 8.4%.

In the case of OC[C@H]1O[C@@](CO)(O[C@H]2O[C@H](CO)[C@@H](O)[C@H](O)[C@H]2O)[C@@H](O)[C@@H]1O [Saccharose], the “Relative Activity %” value [2] was 100%.

OC[C@@]12OC[C@@H](O1)[C@@H](O)[C@@H](O)[C@@H]2O [Sedoheptulose Anhydride] was tested, and the “Relative Activity %” value [1] was 1.1%.

In the case of Cc1cn([C@H]2C[C@H](O)[C@@H](COP(=O)(O)OP(=O)(O)O)O2)c(=O)[nH]c1=O [TDP], the Km [4] was 650 µM and the “acceptance of the nucleosidediphosphate” value [3] was “accepted in the sequence UDP, TDP, ADP, CDP and GDP”.

For CN1[C@@H]2CC[C@H]1C[C@@H](O)C2 [Tropin], the “Relative Activity %” value [1] was 10.3%.

For O=C(CO)[C@@H](O[C@H]1O[C@H](CO)[C@@H](O)[C@H](O)[C@H]1O)[C@H](O)[C@H](O)CO [Turanose], the “Relative Activity %” value [1] was 0.5%.

For CC(=O)N[C@H]1[C@@H](OP(=O)(O)OP(=O)(O)OC[C@H]2O[C@@H](n3ccc(=O)[nH]c3=O)[C@H](O)[C@@H]2O)O[C@H](CO)[C@@H](O)[C@@H]1O [UDP-N-acetylglucosamine], the “reaction of UDP-sugar with the rice enzyme (in words)” value [5] was “can be reacted with the rice enzyme” and the “Relative Activity %” value [5] was 1.8%.

For O=c1ccn([C@@H]2O[C@H](COP(=O)(O)OP(=O)(O)O[C@H]3OC[C@@H](O)[C@H](O)[C@H]3O)[C@@H](O)[C@H]2O)c(=O)[nH]1 [UDP-xylose], the “reaction of UDP-sugar with the rice enzyme (in words)” value [5] was “can be reacted with the rice enzyme” and the “Relative Activity %” value [5] was 1.7%.

O=c1ccn([C@@H]2O[C@H](COP(=O)(O)OP(=O)(O)O)[C@@H](O)[C@H]2O)c(=O)[nH]1 [UDP] was tested, and the Km [4] was 400 µM, the pKi ([4]; with 0.9 mU enzyme, pH 6.5, 30° C., read-out: substrate excess inhibition Ki(S)) was 1.80 and the “acceptance of the nucleosidediphosphate” value [3] was “accepted in the sequence UDP, TDP, ADP, CDP and GDP”.
